≈ marks a conversion by molar mass, not a printed value. Where “and” joins values, the source holds several entries; their conditions need not be identical. Equal entries are not always repeated. Where two headings read alike, the source gives them in different places.
Key:
[1] = test system: Bacillus Calmette Guerin (BCG); format: in vivo, BABL/C mice; conditions: for Colony count results after treatment for 28 days (spleens and lungs): BCG-infected mice, FIG. 1; for Lung pathological examination, anti-BCG infection treatment effects: HE staining, FIG. 2
293 cells = assay: Cytotoxicity test (MTT method); format: cell-based; conditions: Homo sapiens
[2] = test system: mycobacterium tuberculosis H37Rv; assay: In vitro inhibition test on Mycobacterium tuberculosis (H37Rv); format: cell-based; conditions: for MIC99 / MIC90: Mycobacterium tuberculosis; for MIC99: 264 h; for inhibitory effects on mycobacterium tuberculosis (H37Rv): result in words
[3] = test system: Mycobacterium tuberculosis (H37Ra); assay: In vitro inhibition test on Mycobacterium tuberculosis (H37Ra); format: cell-based
[4] = Acute toxicity test of compound If, blood biochemical detection; format: in vivo; parameters: Blood urea nitrogen / Total cholesterol / Creatine kinase / Creatinine / Blood glucose / Triglyceride / Total bilirubin / Alanine aminotransferase / Aspartate aminotransferase: unit not given here
Method: • 1. Experimental method, 1) If, intraperitoneal suspension, at dose of 2.5 g/kg; 2) adjuvant: 1% sodium carboxymethylcellulose (CMC-Na), 1% tween-80; 3) 10 BABL/C male and female mice, 6-8 weeks old, and weight of 20±2 g. The 10 mice were randomly divided into 2 groups, 5 mice for each group, and a solvent control group is set. Single intraperitoneal injection of 2.5 g/kg was given to the (1) drug group and (2) solvent control group within 24 h; physical signs, behavioral activities, glandular secretion, breath, stool, genitals, death and other poisoning manifestations of the mice were constantly observed every 4 h after administration, and the mice were killed after observation for 24 h, 5) blood was taken from eyeballs, and then the mice were killed, 800 μl whole blood was taken, centrifuged at 1300 r/min for 15 min, and 200 μl supernatant serum was taken for blood biochemical detection, including the following evaluation indicators: aspartate aminotransferase (AST), alanine aminotransferase (ALT), creatine kinase (CK), alkaline phosphatase (ALP), blood urea nitrogen (BUN), total protein (TP), albumin (Alb), blood glucose (GLU), total bilirubin (T-BIL), creatinine (Crea), total cholesterol (Chol) and triglyceride (TG), with 12 items in total. • 2.

[5] = high dose group, 75 mg/kg i.p. once every day
[6] = low dose group, 25 mg/kg i.p. once every day
[7] = HEK293, 293 cells, MTT, 48 h, read-out: IC50
[8] = H37Rv, generally observed 11 days after inoculation, read-out: MIC99
[9] = H37Rv, generally observed 5-7 days after inoculation, read-out: MIC90
[10] = serum of individual mice 6-10, If 2.5 g/kg i.p., 24 h

## O=[N+]([O-])c1cc(C(F)(F)F)cc2c(=S)nc(N3CCC4(CC3)OCCO4)sc12 [Compound If, 8-nitro-2-(1,4-dio-8-aza[4.5]dec-8-yl)-6-(trifluoromethyl)-4H-benzo[e][1,3]thiazine-4-thione]
[1]; [5]
  Colony count results after treatment for 28 days (spleens and lungs): slightly inferior to those of isoniazide, but obviously superior to those of the model group
  Lung pathological examination, anti-BCG infection treatment effects: equivalent to those of the isoniazide (positive) control group
[1]; [6]
  Colony count results after treatment for 28 days (spleens and lungs): inhibitory effects on BCG growth of mouse spleens and lungs
  Lung pathological examination, anti-BCG infection treatment effects: obviously superior to those of the solvent group, but inferior to the isoniazide (positive) control group and the If high dose group
293 cells; [7]
  IC50: > 500 µM
[2]; [8]
  MIC99: 0.0312 mg/L (≈ 0.0721 µM)
[2]; [9]
  MIC90: 0.0312 mg/L (≈ 0.0721 µM)
[2]
  inhibitory effects on mycobacterium tuberculosis (H37Rv): equivalent to or even better than those of isoniazide
[3]
  IC90: 0.1 µM
[4]; 2.5 g/kg single intraperitoneal injection, mice, observation 24 h
  acute toxicity: no obvious acute toxicity
[4]; [10]
  Alanine aminotransferase: 10 and 16 (2×) and 12 and 11
  Albumin: 31.5 and 34.0 and 33.1 and 33.4 and 32.2
  Alkaline phosphatase: 166 and 134 and 156 and 175 and 165
  Aspartate aminotransferase: 145 and 148 and 149 and 156 and 169
  Blood glucose: 6.3 and 4.3 and 4.9 and 4.5 and 5.1
  Blood urea nitrogen: 6.7 and 5.5 and 6.3 and 8.9 and 7.9
  Creatine kinase: 67 and 54 and 65 and 66 and 74
  Creatinine: −12 (2×) and −6 and −15 and −4
  Total bilirubin: −0.6 (2×) and −0.5 and −1.2 and −0.4
  Total cholesterol: 3.35 and 3.21 and 3.34 and 3.53 and 3.14
  Total protein: 70.1 and 65.6 and 66.7 and 73.8 and 65.7
  Triglyceride: 2.10 and 1.80 and 2.53 and 2.17 and 2.24

## Fc1cc2c(=S)nc(Nc3ccc(Br)cn3)sc2c(F)c1F [Ia, 2-(5-bromopyridine-2-amino)-6,7,8-trifluoro-4H-benzo[e][1,3]thiazine-4-thione]
293 cells; [7]
  IC50: > 500 µM
[2]; [8]
  MIC99: 16 mg/L (≈ 39.6 µM)
[2]; [9]
  MIC90: 8 mg/L (≈ 19.8 µM)

## O=[N+]([O-])c1cc([N+](=O)[O-])c2sc(Nc3ccc(C(F)(F)F)cc3)nc(=S)c2c1 [Ib, 6,8-dinitro-2-(4-(trifluoromethyl)anilino)-4H-benzo[e][1,3]thiazine-4-thione]
293 cells; HEK293, 48 h
  IC50: > 500 µM
[2]; H37RV
  MIC90: 4 mg/L (≈ 9.34 µM)
  MIC99: 16 mg/L (≈ 37.4 µM)

## CCNc1nc(=S)c2cc([N+](=O)[O-])cc([N+](=O)[O-])c2s1 [Ic, 2-(ethylamino)-6,8-dinitro-4H-benzo[e][1,3]thiazine-4-thione]
293 cells; HEK293, 48 h
  IC50: > 500 µM
[2]; H37RV
  MIC90: 2 mg/L (≈ 6.4 µM)
  MIC99: 8 mg/L (≈ 25.6 µM)

## CNc1nc(=S)c2cc([N+](=O)[O-])cc([N+](=O)[O-])c2s1 [Id, 2-(methylamino)-6,8-dinitro-4H-benzo[e][1,3]thiazine-4-thione]
293 cells; HEK293, 48 h
  IC50: > 500 µM
[2]; H37RV
  MIC90: 2 mg/L (≈ 6.7 µM)
  MIC99: 4 mg/L (≈ 13.4 µM)

## O=[N+]([O-])c1cc([N+](=O)[O-])c2sc(N3CCCCC3)nc(=S)c2c1 [Ie, 6,8-dinitro-2-(piperidine-1-alkyl)-4H-benzo[e][1,3]thiazine-4-thione]
293 cells; HEK293, 48 h
  IC50: > 500 µM
[2]; H37RV
  MIC90: 1 mg/L (≈ 2.84 µM)
  MIC99: 4 mg/L (≈ 11.4 µM)

## O=[N+]([O-])c1cc([N+](=O)[O-])c2sc(N3CCOCC3)nc(=S)c2c1 [Ig, 2-morpholinyl-6,8-dinitro-4H-benzo[e][1,3]thiazine-4-thione]
293 cells; HEK293, 48 h
  IC50: > 500 µM
[2]; H37RV
  MIC90: 0.0625 mg/L (≈ 0.176 µM)
  MIC99: 0.125 mg/L (≈ 0.353 µM)
[2]
  inhibitory effects on mycobacterium tuberculosis (H37Rv): equivalent to or even better than those of isoniazide
[3]
  IC90: 0.8 µM

## O=[N+]([O-])c1cc(C(F)(F)F)cc2c(=S)nc(N3CCOCC3)sc12 [Ih, 2-morpholinyl-8-nitro-6-(trifluoromethyl)-4H-benzo[e][1,3]thiazine-4-thione]
293 cells; [7]
  IC50: > 500 µM
[2]; [8]
  MIC99: 0.0312 mg/L (≈ 0.0828 µM)
[2]; [9]
  MIC90: 0.0312 mg/L (≈ 0.0828 µM)
[2]
  inhibitory effects on mycobacterium tuberculosis (H37Rv): equivalent to or even better than those of isoniazide
[3]
  IC90: 0.8 µM

## NNC(=O)c1ccncc1 [Isoniazide, reference compound]
[2]; [8]
  MIC99: 0.0625 mg/L (≈ 0.456 µM)
[2]; [9]
  MIC90: 0.0625 mg/L (≈ 0.456 µM)
[3]
  IC90: 0.8 µM

From US20140303152A1, “BENZOTHIAZINETHIONE DERIVATIVES AND PREPARATION METHODS AND USES THEREOF” (SICHUAN UNIVERSITY, priority 2011, published 2014)
